The data set is described as follows: Solution stability of N-protected and C-protected amino acid. The conditions noted are these: N-protected and C-protected amino acid (Fmoc-Leu condensed with the listed compound) in tetrahydrofuran and acetic acid, room temperature, three days; amount remaining (survival rate). The data set is classed as physicochemical. How it is done: The obtained N-protected and C-protected amino acid (10 mg) and 2,6-di-tert-butyl-4-methylphenol (internal standard: 8 mg) were dissolved in a tetrahydrofuran solution (20 mL) and acetic acid (2 mL), respectively, and after allowing time to pass at room temperature for three days, the amount of remaining N-protected and C-protected amino acid was determined and evaluated based on the following standard.
Regarding the evaluation of the solution stability, a case of “B” or higher was regarded as acceptable.
It can be said that, as the solution stability is higher, peptide stability is high, side reactions can be suppressed, and yield is excellent.
—Evaluation Standard— • “A”: survival rate was 99% or more. • “B”: survival rate was 97% or more and less than 99%. • “C”: survival rate was 95% or more and less than 97%. • “D”: survival rate was less than 95%.

Molecules are shown by their SMILES.

For `CCCCCCCCCCCCCCCCCCCCCCOc1ccc(C(O)c2ccc(OCCCCCCCCCCCCCCCCCCCCCC)cc2)cc1` [Comparative compound (1-1)], the Solution stability entry was “C (survival rate was 95% or more and less than 97%)”.

Turning to `CCCCCCCCCCCCCCCCCCCCCCOc1cc(COc2ccc3cc(C(O)c4ccc(OC)cc4)ccc3c2)cc(OCCCCCCCCCCCCCCCCCCCCCC)c1` (centres unmarked) [Compound (1-2)], the Solution stability result was “A (survival rate was 99% or more)”.

(Values after patent US20220112233A1, “METHOD FOR PRODUCING PEPTIDE COMPOUND, PROTECTIVE GROUP-FORMING REAGENT, AND CONDENSED POLYCYCLIC AROMATIC HYDROCARBON COMPOUND” (FUJIFILM CORPORATION, priority 2019, published 2022).)
